Results on three compounds are retold here after patent US8293791B2, “Method of neuroprotection by pharmacological inhibition of AMP-activated protein kinase” (priority 2004, dated 2012).

“Also recorded” adds a separate entry of the source. Where two headings read alike, the source gives them in different places.

Data set [1] deals with male C57B6 mice. Description: Infarction volume (TTC staining) after 2-hr reversible MCAO with 22 hr reperfusion. In kind it is in vivo, mouse. How it is done:
Cerebral ischemia was induced by 120 minutes of reversible right middle cerebral artery occlusion (MCAO) under halothane anesthesia followed by reperfusion for various times for male C57B6 mice (Charles River) or male rats, as described by McCullough, et al., Stroke, 32, 796-802 (2001) and McCullough, et al., J. Neuroscience, 24, pp. 257-268 (2004), respectively. Intra-ischemic and 22 hour post-reperfusion neurological deficits (NDS) were scored as follows: 0, no deficit; 1, forelimb weakness and torso turning to the ipsilateral side when held by tail; 2, circling to affected side; 3, unable to bear weight on affected side; and 4, no spontaneous locomotor activity or barrel rolling. Any animal without deficit was excluded from the study. At end-ischemia, the animal was briefly re-anaesthetized and reperfusion was initiated by filament withdrawal. Sham animals were subjected to the equivalent surgical preparation, but the suture was not advanced into the internal carotid. For the pharmacological neuroprotection studies, mice survived 22 hours after reperfusion, at which time behavioral scoring was done. The brain was then harvested for pathological examination with TTC histology (see Histopathology section). In separate animal cohorts, physiological measurements, femoral arterial blood pressure and cortical perfusion (laser Doppler flowmetry) were evaluated throughout MCAO and early reperfusion as described in the 2001 McCullough paper referenced above. Additional animals were exposed to ischemia or sham surgery after pharmacological or vehicle treatment and were sacrificed at 4 or 24 hours for Western blot analysis. Male nNOS and PARP-1 deficient mice (see, Huang, et al., Science, 265, 1883-1885 (1994); Eliasson, et al, Nat. Med, 3, 1089-1095 (1997)) were subjected to 2-hour right MCAO or sham surgery and compared to additional WT cohorts (C57-BL6 for nNOS−/− and SVEV for PARP−/−). Infarction volume was analyzed by 2,3,5-triphenyltetrazolium staining in five 2-mm slices. Infarction volume was determined by video microscopy and image analysis (Inquiry 3, Loats Associates), as previously described by McCullough, et al., J. Neuroscience 23, pp. 8701-8705 (2003). All data are expressed as mean±SEM. Physiological variables and histology were analyzed by 1-way ANOVA with a post-hoc Newman-Keuls to correct for multiple comparisons. Post-ischemic neurological scores were analyzed by the Mann-Whitney U test. Values were considered statistically significant at *, p<0.05; **, p<0.01; ***, p<0.001

Data set [2] deals with AMPKα phosphorylation (pAMPK). Description: Western blot analysis of pAMPK levels in brain hemispheres after MCAO or sham surgery. Type of data set: in vivo, mouse. The method, then: Cerebral ischemia was induced by 120 minutes of reversible right middle cerebral artery occlusion (MCAO) under halothane anesthesia followed by reperfusion for various times for male C57B6 mice (Charles River) or male rats, as described by McCullough, et al., Stroke, 32, 796-802 (2001) and McCullough, et al., J. Neuroscience, 24, pp. 257-268 (2004), respectively. Intra-ischemic and 22 hour post-reperfusion neurological deficits (NDS) were scored as follows: 0, no deficit; 1, forelimb weakness and torso turning to the ipsilateral side when held by tail; 2, circling to affected side; 3, unable to bear weight on affected side; and 4, no spontaneous locomotor activity or barrel rolling. Any animal without deficit was excluded from the study. At end-ischemia, the animal was briefly re-anaesthetized and reperfusion was initiated by filament withdrawal. Sham animals were subjected to the equivalent surgical preparation, but the suture was not advanced into the internal carotid. For the pharmacological neuroprotection studies, mice survived 22 hours after reperfusion, at which time behavioral scoring was done. The brain was then harvested for pathological examination with TTC histology (see Histopathology section). In separate animal cohorts, physiological measurements, femoral arterial blood pressure and cortical perfusion (laser Doppler flowmetry) were evaluated throughout MCAO and early reperfusion as described in the 2001 McCullough paper referenced above. Additional animals were exposed to ischemia or sham surgery after pharmacological or vehicle treatment and were sacrificed at 4 or 24 hours for Western blot analysis. Male nNOS and PARP-1 deficient mice (see, Huang, et al., Science, 265, 1883-1885 (1994); Eliasson, et al, Nat. Med, 3, 1089-1095 (1997)) were subjected to 2-hour right MCAO or sham surgery and compared to additional WT cohorts (C57-BL6 for nNOS−/− and SVEV for PARP−/−). Mouse and rat stroke and sham brain samples were obtained by rapid removal of the brain from the skulk resection of the cerebellum, followed by immediate dissection into the right (R) and left (L) hemispheres. Samples were flash frozen in liquid nitrogen. Samples from rats were further sub-dissected into core and penumbral regions for both hemispheres. Samples were stored at −80° C. until use. […] SDS detergent was added to a final concentration of 0.2%, and lysates were boiled for 5 min. After the supernatant was harvested, protein concentration was determined using a BCA kit (Bio Rad). 40 μg of protein was loaded per lane on a 4-15% gradient SDS-polyacrylamide gel, and transferred to a polyvinylidene difluoride membrane. Blots were successively probed, stripped and reprobed for antigen detection. Phosphorylation of AMPKα was determined using an anti-phospho-AMPKα (α1 and α2 Thr) antibody (1:1000, Cell Signaling). ACC (1:500), p-ACC (1:1000), pAkt (1:500), and Akt (1:500) antibodies were obtained from Upstate, Lake Placid, N.Y. Anti-AMPKα antibody (anti-α1 and α2, 1:1000; Cell Signaling), hsp-70 (1:1000; Santa Cruz), and β-actin (1:5000; Sigma) were used as loading controls. All blots were incubated overnight in primary antibody at 4° C. in TBS buffer containing 5% BSA and 0.1% Triton-X-100. The secondary antibody (goat anti-rabbit IgG, Chemicon) was diluted to 1:5,000, and ECL (pico) detection kit was used for signal detection.

For data set [3], the system named is male C57B6 mice. As to conditions: mouse, in vivo.
Data set [4] relates to male C57B6 mice. Description: Neurological deficit score (NDS) after MCAO. Type of data set: in vivo, mouse. How it is done: Cerebral ischemia was induced by 120 minutes of reversible right middle cerebral artery occlusion (MCAO) under halothane anesthesia followed by reperfusion for various times for male C57B6 mice (Charles River) or male rats, as described by McCullough, et al., Stroke, 32, 796-802 (2001) and McCullough, et al., J. Neuroscience, 24, pp. 257-268 (2004), respectively. Intra-ischemic and 22 hour post-reperfusion neurological deficits (NDS) were scored as follows: 0, no deficit; 1, forelimb weakness and torso turning to the ipsilateral side when held by tail; 2, circling to affected side; 3, unable to bear weight on affected side; and 4, no spontaneous locomotor activity or barrel rolling. Any animal without deficit was excluded from the study. At end-ischemia, the animal was briefly re-anaesthetized and reperfusion was initiated by filament withdrawal. […] In separate animal cohorts, physiological measurements, femoral arterial blood pressure and cortical perfusion (laser Doppler flowmetry) were evaluated throughout MCAO and early reperfusion as described in the 2001 McCullough paper referenced above. […]
All data are expressed as mean±SEM. Physiological variables and histology were analyzed by 1-way ANOVA with a post-hoc Newman-Keuls to correct for multiple comparisons. Post-ischemic neurological scores were analyzed by the Mann-Whitney U test. […]

The subject of data set [5] is male C57B6 mice. Description: Physiological measurements, arterial blood pressure and laser Doppler flow during MCAO and early reperfusion. The settings on record: for MAP: averaged over the 2 hours of ischemia (all); for MAP / LDF (% BL) / HCO3 / Hg / PCO2 / PO2 / Ph: n=4/group; for LDF (% BL) / HCO3 / Hg / PCO2 / PO2 / Ph: intra-ischemic; for LDF (% BL): averaged over the 2 hours of ischemia.

As to `NC(=O)c1ncn([C@@H]2O[C@H](CO)[C@@H](O)[C@H]2O)c1N` [AICAR, 5-aminoimidazole-4-carboxamide ribonucleoside], the “total and cortical (CTX) stroke volumes” value with male C57B6 mice [1] (AICAR 500 mg/kg i.p. at stroke onset, vs vehicle) is recorded as “significant exacerbation”. The “pAMPK by 24 hr” value in data set [2] (AICAR treated animals) is given as “returned to baseline”. Also, the “pAMPK 4 hr following stroke (2 hours of reperfusion)” value in data set [2] (AICAR treated vs vehicle treated animals) is recorded as “elevations”. Besides, in the data set on male C57B6 mice [3], the “CBF at 30 minutes after reperfusion” value is on record as 82.7 % of baseline, the HCO3 was 22.9 ± 2.3, the Hg was 13.4 ± 0.9 and the “LDF (% BL)” value is recorded as 11.1 ± 1.2 % BL. In the data set with male C57B6 mice [3], the MAP is given as 77.7 ± 7.3 (all), the PCO2 was determined as 39.7 ± 4.9, the PO2 came to 128 ± 15.2 and the Ph is on record as 7.33 ± 0.11. Besides, in the data set with male C57B6 mice [3], the “intraischemic CBF, vs controls” value is reported as “no differences” and the “mean arterial pressure (MAP) at 15 minutes after injection” value is reported as 69 mmHg.

Take `C=C1C(=O)OC(CCCCCCCC)C1C(=O)O` (stereo not drawn) [C75]: the “behavioral scores (score 0-4)” value in the data set on male C57B6 mice [4] (C75 20 mg/kg i.p. immediately prior to onset of ischemia, vehicle 3.2±0.05) is 2.0±0.03. Further, the “total and regional infarction volume” value with male C57B6 mice [1] (C75 20 mg/kg i.p. immediately prior to onset of ischemia, vs vehicle (RPMI), p<0.001) is listed as “significant reduction”. The “LDF or physiological variables, vs vehicle” value in the data set on male C57B6 mice [5] (C75 20 mg/kg i.p., n=4) is given as “no differences”. In the data set on male C57B6 mice [5], the MAP was 79.1 ± 6.5, the “LDF (% BL)” value amounted to 10.6 ± 0.88 % BL, the HCO3 is on record as 22.8 ± 1.2 and the Hg turned out to be 12.9 ± 0.5. In the data set with male C57B6 mice [5], this compound had a PCO2 of 47 ± 7.1, a PO2 of 135 ± 14.2 and a Ph of 7.34 ± 0.08. Further, in data set [2] (C75 treated mice vs vehicle, 2-hour MCAO), the “increase in pAMPK levels at 4 hr (2 hr of reperfusion)” value is given as “blunted”. Besides, in data set [2] (C75 treated vs vehicle, both sham and stroke mice), the “pAMPK levels 24 hr following stroke” value is “reduced; also recorded: Reductions”.

Regarding `c1cc(-c2cnn3cc(-c4ccc(OCCN5CCCCC5)cc4)cnc23)ccn1` [Compound C], the “severity of behavioral deficits at 24 hours (score 0-4)” value in the data set on male C57B6 mice [4] (Compound C 20 mg/kg i.p. at stroke onset, vehicle 3.3±0.3) came to 1.9±0.2. In the data set on male C57B6 mice [1] (Compound C 20 mg/kg i.p. at stroke onset, 2-hr MCAO, 22 hr reperfusion, vehicle 63±3.4), the “cortical (CTX) infarct volume” value was 19.4±3.3 % non-ischemic hemisphere. In the data set with male C57B6 mice [1] (Compound C 20 mg/kg i.p. at stroke onset, 2-hr MCAO, 22 hr reperfusion, vehicle 64±5.7), the “striatal (CP) infarct volume” value was found to be 21±3.9 % non-ischemic hemisphere. The total infarct volume result with male C57B6 mice [1] (Compound C 20 mg/kg i.p. at stroke onset, 2-hr MCAO, 22 hr reperfusion, vs vehicle) is reported as “significantly reduced”. Also, in the data set with male C57B6 mice [5] (Compound C 20 mg/kg i.p.), the “relative cerebral blood flow (CBF) by laser Doppler, intraischemic and during the 30 minutes after reperfusion, vs vehicle” value was “no difference”. The “relative cerebral blood flow (CBF) by laser Doppler, intraischemic period” value in the data set on male C57B6 mice [5] (Compound C 20 mg/kg i.p., vehicle 9.8±0.54, p=n.s.) is on record as 10.6±0.9 % of baseline. Also, in the data set on male C57B6 mice [5], the MAP turned out to be 82.2 ± 5.9, the “LDF (% BL)” value came out at 10.6 ± 0.9 % BL, the HCO3 came out at 23.1 ± 0.08 and the Hg was determined as 12.7 ± 1.3. In the data set on male C57B6 mice [5], the PCO2 is on record as 42.1 ± 3.1, the PO2 is on record as 144.6 ± 14.3 and the Ph is on record as 7.36 ± 0.07. Also, in data set [2] (Compound C treated mice vs vehicle, 2 hours MCAO), the “pAMPK levels 4 hr after infarction (2 hours of reperfusion)” value is “reduced”.
